Results published in ChEMBL document CHEMBL1201862, “PubChem BioAssay data set” (2004).
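Assay format: 96-well plates, 48-hour exposure. GI50: concentration for 50% inhibition of growth.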 The source made the active and inactive calls. No stated cut-off is given here; in the data, active = GI50 up to about 1.1 µM and inactive = higher.

Experiments:
Assay in all cases: NCI anticancer screen, dose series, 48 h
HCC 2998 = tested on: HCC 2998
HL-60 = tested on: HL-60
PC-3 = tested on: PC-3
SK-OV-3 = tested on: SK-OV-3
U-251 = tested on: U-251
M14 = tested on: M14
OVCAR-4 = tested on: OVCAR-4
NCI-H460 = tested on: NCI-H460
TK-10 = tested on: TK-10
COLO 205 = tested on: COLO 205
CCRF-CEM = tested on: CCRF-CEM
NCI-H23 = tested on: NCI-H23
NCI-H226 = tested on: NCI-H226
HOP-62 = tested on: HOP-62
LOX IMVI = tested on: LOX IMVI
SW-620 = tested on: SW-620
SK-MEL-2 = tested on: SK-MEL-2
SK-MEL-28 = tested on: SK-MEL-28
NCI-H522 = tested on: NCI-H522
IGROV-1 = tested on: IGROV-1

SMILES	GI50 (HCC 2998)	GI50 (HL-60)	GI50 (PC-3)	GI50 (SK-OV-3)	GI50 (U-251)	GI50 (M14)	GI50 (OVCAR-4)	GI50 (NCI-H460)	GI50 (TK-10)	GI50 (COLO 205)	GI50 (CCRF-CEM)	GI50 (NCI-H23)	GI50 (NCI-H226)	GI50 (HOP-62)	GI50 (LOX IMVI)	GI50 (SW-620)	GI50 (SK-MEL-2)	GI50 (SK-MEL-28)	GI50 (NCI-H522)	GI50 (IGROV-1)
CCOC(=O)c1csc(NC(=O)CCCC#N)n1	> 100 µM (inactive)	> 100 µM (inactive)	> 100 µM (inactive)	> 100 µM (inactive)	> 100 µM (inactive)	> 100 µM (inactive)	> 100 µM (inactive)	> 100 µM (inactive)	> 100 µM (inactive)	> 100 µM (inactive)	> 100 µM (inactive)	> 100 µM (inactive)	> 100 µM (inactive)	> 100 µM (inactive)	> 100 µM (inactive)	> 100 µM (inactive)	> 100 µM (inactive)	> 100 µM (inactive)		
CO/C(=N/N1CC1C(F)(F)F)c1ccncc1 (stereo not drawn)		> 100 µM (inactive)	> 10 µM (inactive)	54.7 µM (inactive)	> 100 µM (inactive)	> 100 µM (inactive)	> 100 µM (inactive)	> 100 µM (inactive)		> 100 µM (inactive)	88.1 µM (inactive)	> 100 µM (inactive)	> 100 µM (inactive)	> 100 µM (inactive)			> 100 µM (inactive)	> 100 µM (inactive)	> 100 µM (inactive)	> 100 µM (inactive)
Cc1ccc([N+](=O)[O-])cc1S(=O)(=O)Nc1ccc(C2=NNC(c3cccs3)C2)cc1 (stereo not drawn)	30.8 µM (inactive)	0.0627 µM (active)	33.3 µM (inactive)	20.7 µM (inactive)		25.5 µM (inactive)	22 µM (inactive)	25.4 µM (inactive)		6.87 µM (inactive)	20.2 µM (inactive)	22.2 µM (inactive)	49.7 µM (inactive)	24.3 µM (inactive)	28.7 µM (inactive)	34.1 µM (inactive)	33.7 µM (inactive)	48.5 µM (inactive)	24.7 µM (inactive)	58.9 µM (inactive)
CC(NC(=O)Cc1ccccc1)NC(=O)C(C)C(=O)NCc1ccccc1 (stereo not drawn)		> 100 µM (inactive)	> 100 µM (inactive)	53.6 µM (inactive)	50.6 µM (inactive)	> 100 µM (inactive)	> 100 µM (inactive)	> 100 µM (inactive)	45.4 µM (inactive)	> 100 µM (inactive)	> 100 µM (inactive)	> 100 µM (inactive)	21.7 µM (inactive)			> 100 µM (inactive)	75.3 µM (inactive)		> 100 µM (inactive)	50.9 µM (inactive)
NS(=O)(=O)c1ccc(NC(=S)NC=C2C(=O)c3ccccc3C2=O)cc1	38.3 µM (inactive)	> 100 µM (inactive)	> 100 µM (inactive)	> 100 µM (inactive)	76.2 µM (inactive)	> 100 µM (inactive)	49 µM (inactive)	> 100 µM (inactive)	46.6 µM (inactive)	> 100 µM (inactive)	> 100 µM (inactive)	> 100 µM (inactive)		> 100 µM (inactive)	> 100 µM (inactive)	> 100 µM (inactive)	62.1 µM (inactive)	> 100 µM (inactive)	65.9 µM (inactive)	23.3 µM (inactive)
CCN(CC)CCN(C(=O)C(C)(C)C)c1ccccc1N		> 100 µM (inactive)	> 100 µM (inactive)	> 100 µM (inactive)	> 100 µM (inactive)	> 100 µM (inactive)	> 100 µM (inactive)	> 100 µM (inactive)	> 100 µM (inactive)		> 100 µM (inactive)	> 100 µM (inactive)	> 100 µM (inactive)	> 100 µM (inactive)		> 100 µM (inactive)		> 100 µM (inactive)	> 100 µM (inactive)	> 100 µM (inactive)
Nc1cc2nc(O)c(O)nc2cc1N	> 100 µM (inactive)	> 100 µM (inactive)	> 100 µM (inactive)	> 100 µM (inactive)	> 100 µM (inactive)		> 100 µM (inactive)	> 100 µM (inactive)	> 100 µM (inactive)	> 100 µM (inactive)	> 100 µM (inactive)	> 100 µM (inactive)	> 100 µM (inactive)	> 100 µM (inactive)	> 100 µM (inactive)	> 100 µM (inactive)	> 100 µM (inactive)	> 100 µM (inactive)		> 100 µM (inactive)
CSC1NC(c2ccccc2)=C(C#N)C(=O)N1C1OCC(OC(C)=O)C(OC(C)=O)C1OC(C)=O (stereo not drawn)	> 100 µM (inactive)		> 100 µM (inactive)	> 100 µM (inactive)	> 100 µM (inactive)	> 100 µM (inactive)	> 100 µM (inactive)	> 100 µM (inactive)	> 100 µM (inactive)	> 100 µM (inactive)		> 100 µM (inactive)	> 100 µM (inactive)	> 100 µM (inactive)	> 100 µM (inactive)	> 100 µM (inactive)		> 100 µM (inactive)	> 100 µM (inactive)	> 100 µM (inactive)
COc1ccc2c(C)cc(N/N=C/c3sccc3C)nc2c1	12.6 µM (inactive)	46.8 µM (inactive)	12.9 µM (inactive)	17.1 µM (inactive)	17.9 µM (inactive)	11.8 µM (inactive)	20.9 µM (inactive)		17.1 µM (inactive)	3.91 µM (inactive)	39.8 µM (inactive)	14.7 µM (inactive)	10 µM (inactive)	15.2 µM (inactive)	7.59 µM (inactive)	21.6 µM (inactive)	15.6 µM (inactive)	14.8 µM (inactive)	10.2 µM (inactive)	5.82 µM (inactive)
CO[C@@H]1O[C@H](C(=O)c2ccccc2)[C@H]2OC(C)(C)O[C@@H]12	> 100 µM (inactive)	21.1 µM (inactive)	> 100 µM (inactive)	> 100 µM (inactive)	> 100 µM (inactive)	> 100 µM (inactive)	> 100 µM (inactive)	38.1 µM (inactive)	> 100 µM (inactive)	> 100 µM (inactive)	49.7 µM (inactive)	94.8 µM (inactive)	> 100 µM (inactive)	> 100 µM (inactive)	> 100 µM (inactive)	56.8 µM (inactive)	> 100 µM (inactive)		> 100 µM (inactive)	> 100 µM (inactive)
Clc1ccc2c(c1)CC1C[N+]3=C(CCCCC3)C1=C2 (stereo not drawn)		> 100 µM (inactive)	42.1 µM (inactive)	> 100 µM (inactive)	23.7 µM (inactive)	57.3 µM (inactive)	54.8 µM (inactive)	33 µM (inactive)	69.2 µM (inactive)	28.9 µM (inactive)	> 100 µM (inactive)	37.4 µM (inactive)	69.7 µM (inactive)	> 100 µM (inactive)	43.3 µM (inactive)	> 100 µM (inactive)	28.8 µM (inactive)	> 100 µM (inactive)	38.8 µM (inactive)	37.2 µM (inactive)
O=C(O)CCC(NC(=O)c1ccc(Nc2nc3cc(C(F)(F)F)ccc3nc2C(=O)O)cc1)C(=O)O (stereo not drawn)	> 100 µM (inactive)	> 100 µM (inactive)	> 100 µM (inactive)		> 100 µM (inactive)	> 100 µM (inactive)		> 100 µM (inactive)	> 100 µM (inactive)	> 100 µM (inactive)	> 100 µM (inactive)	> 100 µM (inactive)	> 100 µM (inactive)	> 100 µM (inactive)	> 100 µM (inactive)	> 100 µM (inactive)	> 100 µM (inactive)	> 100 µM (inactive)	> 100 µM (inactive)	> 100 µM (inactive)
COc1ccc(C2=Nc3c(nc(OC)[nH]c3=O)NC(c3ccccc3)C2)cc1 (stereo not drawn)		19.3 µM (inactive)	48 µM (inactive)		24.8 µM (inactive)	27.3 µM (inactive)				24.6 µM (inactive)	30.8 µM (inactive)	29.6 µM (inactive)	36.6 µM (inactive)	41.5 µM (inactive)	26.6 µM (inactive)	24.1 µM (inactive)	25.7 µM (inactive)	19.1 µM (inactive)	28.7 µM (inactive)	30.1 µM (inactive)
CCOC(=O)c1nc2cc(C(F)(F)F)ccc2nc1Oc1ccc(F)cc1	> 100 µM (inactive)	63.4 µM (inactive)	> 100 µM (inactive)		> 100 µM (inactive)	> 100 µM (inactive)	69.5 µM (inactive)	> 100 µM (inactive)	> 100 µM (inactive)	> 100 µM (inactive)	> 100 µM (inactive)		> 100 µM (inactive)		> 100 µM (inactive)	> 100 µM (inactive)	> 100 µM (inactive)	> 100 µM (inactive)	> 100 µM (inactive)	> 100 µM (inactive)
O=c1[nH]c(Nc2cccc(C(F)(F)F)c2)nc2[nH]cnc12	> 100 µM (inactive)	> 100 µM (inactive)	75.2 µM (inactive)	> 100 µM (inactive)	> 100 µM (inactive)	> 100 µM (inactive)	94.2 µM (inactive)		> 100 µM (inactive)	73.3 µM (inactive)	> 100 µM (inactive)		> 100 µM (inactive)	> 100 µM (inactive)	> 100 µM (inactive)	> 100 µM (inactive)	88.3 µM (inactive)	> 100 µM (inactive)	69.7 µM (inactive)	> 100 µM (inactive)
